In patent publication US10144734B2, “Substituted pyrazolo[1,5-A]pyridine compounds as RET kinase inhibitors” (Array BioPharma, Inc., priority 2016, dated 2018):

Biological target: HEK-293 cells expressing a Kif5b-RET fusion protein (Homo sapiens, UniProt P07949)
Test: cell-based

Chain of HEK-293 cells expressing a Kif5b-RET fusion protein (P07949 29-1114 limits assumed): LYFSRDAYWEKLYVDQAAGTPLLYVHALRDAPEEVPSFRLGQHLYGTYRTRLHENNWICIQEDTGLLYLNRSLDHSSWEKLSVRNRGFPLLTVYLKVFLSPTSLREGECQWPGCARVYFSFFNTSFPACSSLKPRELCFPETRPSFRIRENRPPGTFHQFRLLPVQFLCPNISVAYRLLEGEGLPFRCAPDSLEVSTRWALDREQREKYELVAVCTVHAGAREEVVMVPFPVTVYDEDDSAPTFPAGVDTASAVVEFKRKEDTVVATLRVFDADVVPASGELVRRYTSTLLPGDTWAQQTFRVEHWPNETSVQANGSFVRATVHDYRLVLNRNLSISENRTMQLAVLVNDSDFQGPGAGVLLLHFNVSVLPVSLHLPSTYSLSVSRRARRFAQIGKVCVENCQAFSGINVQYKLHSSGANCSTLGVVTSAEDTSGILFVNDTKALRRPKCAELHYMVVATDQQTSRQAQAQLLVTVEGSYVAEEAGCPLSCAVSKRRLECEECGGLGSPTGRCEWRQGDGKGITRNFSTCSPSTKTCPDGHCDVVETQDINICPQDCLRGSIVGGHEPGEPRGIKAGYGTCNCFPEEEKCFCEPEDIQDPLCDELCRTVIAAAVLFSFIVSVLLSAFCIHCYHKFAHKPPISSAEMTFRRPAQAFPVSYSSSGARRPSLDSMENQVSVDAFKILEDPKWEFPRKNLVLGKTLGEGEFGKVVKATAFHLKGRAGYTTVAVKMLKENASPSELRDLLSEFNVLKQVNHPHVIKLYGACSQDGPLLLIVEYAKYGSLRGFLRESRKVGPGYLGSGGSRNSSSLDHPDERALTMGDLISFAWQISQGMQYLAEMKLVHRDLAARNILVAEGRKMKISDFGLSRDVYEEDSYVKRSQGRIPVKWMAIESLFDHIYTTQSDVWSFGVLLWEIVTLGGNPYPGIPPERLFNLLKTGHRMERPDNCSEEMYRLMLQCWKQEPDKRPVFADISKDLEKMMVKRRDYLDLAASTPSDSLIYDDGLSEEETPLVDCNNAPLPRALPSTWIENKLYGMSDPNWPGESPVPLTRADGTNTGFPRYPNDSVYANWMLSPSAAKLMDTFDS

SMILES: CCOc1cc(-c2ccc(N3C[C@H]4C[C@@H](C3)[C@H]4Nc3nc(C)ccc3F)nc2)c2c(C#N)cnn2c1 [Example 377, 6-ethoxy-4-(6-((1R,5 S,6r)-6-((3-fluoro-6-methylpyridin-2-yl)amino)-3-azabicyclo[3.1.1]heptan-3-yl)pyridin-3-yl)pyrazolo[1,5-a]pyridine-3-carbonitrile]
- IC50: 0.0394 µM
